Entries after “also recorded” stand apart in the source; their conditions may differ.
Columns and labels:
cerebral ischemia = conditions: reported in WO 2008/014917; cited from earlier work
[1] = molecular target: binding of NMDAR 2B to PSD95 (Homo sapiens, UniProt P78352); conditions: reported by Bach; cited from earlier work
PBBI rats [2] = experiment: Neuroscore after PBBI injury; type: in vivo, rat; conditions: Study 1, 0.5 mg/kg i.v. 8 minute infusion 30 minutes after PBBI, 72 hours post-PBBI, vs PBBI/veh
Protocol: (§1) Body weight was assessed at time 0 (baseline), 24, 72 h and 7 days post injury. Body temperature was assessed at time 0, 30 min (prior to treatment), 2, 24, 72 h, and 7 days post injury. Neuroscore was assessed at 0, 30 min (prior to treatment), 24, 72 h, 7 days post injury. Balance beam was assessed at time 0, 3, and 7 days post injury. Rotarod was assessed at time 0 and 7 days post injury.
Columns=means; error bars=SEM; *p<0.05 compared to PBBI; †p<0.05 compared to 0.05 mg/kg Tat-NR2B9c; #p<0.05 compared to 0.275 mg/kg Tat-NR2B9c.

PBBI rats [3] = experiment: Balance beam footfaults after PBBI injury; type: in vivo, rat; conditions: for footfaults per beam segment contralateral to site of injury / rats unable to cross the beam (assigned maximal footfault scores): 3 days post-PBBI; for rats unable to cross the beam: 7 days post-PBBI
PBBI rats [4] = experiment: Fixed-speed rotarod task after PBBI injury; type: in vivo, rat; conditions: for rotarod task recovery: Study 1, 0.50 mg/kg, 7 days post-PBBI
Protocol: as §1
FIGS. 3A and B show dose-response studies on a rotarod. Rats were trained to criteria on the fixed-speed version of the rotarod task prior to PBBI and tested at 7 days post-PBBI. […] Columns=means; error bars=SEM; *p<0.05 compared to PBBI

PBBI rats [5] = experiment: Morris Water Maze (MWM) task after PBBI; type: in vivo, rat; conditions: multiple dosing (four injections at 30 minutes, 24, 48 and 72 hours post-PBBI; 0.5 and 5 mg/kg); at 5 or more days
Protocol: FIGS. 6A-D show the effects of multiple dosing regimes on neuroscore, rotarod and MWM performance Animals were given four injections of Tat-NR2B9c post-PBBI at 30 minutes, 24 hours, 48 hours and 72 hours.

PBBI rats [6] = experiment: Body temperature after PBBI and dosing; type: in vivo, rat; conditions: approximately 90 minutes following PBBI (60 minutes following dosing)
PBBI rats [7] = experiment: PBBI neuropathology: lesion volume in brain sections (H&E, TTC staining); conditions: for overall (total) lesion volume: Study 1, H&E stained sections, 7 days
Protocol: Male Sprague-Dawley rats (250-300 g) were subjected to a simulated ballistic wound to the right frontal hemisphere implemented by an inflatable penetrating probe. Three levels of injury severity were compared to control animals. Neurological and physiological outcome was assessed over a 3-day recovery period and brain tissue collected at 72 h for histopathological evaluation.
Tat-NR2B9c was administered i.v. in the jugular vein by an 8 minute infusion 30 minutes after inducing brain injury. Rats were sacrificed for histologic examination after 7 days. The dose of Tat-NR2B9c was Study I: 0.5 and 5.0 mg/ml/kg and Study II: 0.05, 0.275, and 0.5 mg/ml/kg. The rats were subject to the following treatments in Study I and II (sham=rat not subject to ballistic injury, PBBI=penetrative ballistic brain injury, veh=vehicle).
Study 1 evaluated two concentrations of Tat-NR2B9c (0.5 mg/kg and 5.0 mg/kg) (n=10 each group) with a survival period of 1 week. […] Behavioral and histological endpoints for both experiments included neurological assessments on neuroscore, balance beam, and rotarod tests, and lesion reconstruction on H&E stained sections.
As with the previous experiments, Tat-NR2B9c was administered as a slow bolus (8 minute) 30 minutes after PBBI.

Chain of binding of NMDAR 2B to PSD95 (P78352 whole entry, the tested form may be a part): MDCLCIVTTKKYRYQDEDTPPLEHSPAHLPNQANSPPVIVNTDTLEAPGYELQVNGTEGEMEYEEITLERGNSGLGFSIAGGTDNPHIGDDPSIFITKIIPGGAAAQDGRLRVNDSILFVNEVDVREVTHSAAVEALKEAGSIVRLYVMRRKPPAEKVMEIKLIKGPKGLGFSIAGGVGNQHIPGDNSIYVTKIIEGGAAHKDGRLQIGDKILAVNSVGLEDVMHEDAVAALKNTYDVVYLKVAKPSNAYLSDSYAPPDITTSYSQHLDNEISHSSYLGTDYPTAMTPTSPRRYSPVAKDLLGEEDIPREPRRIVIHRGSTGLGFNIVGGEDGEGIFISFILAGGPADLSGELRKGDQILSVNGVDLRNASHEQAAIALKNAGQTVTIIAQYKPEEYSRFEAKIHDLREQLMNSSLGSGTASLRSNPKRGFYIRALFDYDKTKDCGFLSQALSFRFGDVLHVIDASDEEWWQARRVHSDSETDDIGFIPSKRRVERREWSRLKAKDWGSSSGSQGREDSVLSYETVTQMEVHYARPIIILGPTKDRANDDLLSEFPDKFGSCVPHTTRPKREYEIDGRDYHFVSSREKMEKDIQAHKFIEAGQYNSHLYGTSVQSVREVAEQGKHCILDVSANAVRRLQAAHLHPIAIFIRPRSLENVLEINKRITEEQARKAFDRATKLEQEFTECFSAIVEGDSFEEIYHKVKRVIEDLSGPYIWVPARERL

vdseissllurrqrrkkrgyin [retro-inverso analog of Tat-NR2B9c]
inhibition of cerebral ischemia (cerebral ischemia): effective inhibiting cerebral ischemia

IESDV (listed as Homo sapiens)
inhibition of binding of NMDAR 2B to PSD95 [1]: effective in inhibiting binding of NMDAR 2B to PSD95

YGRKKRRQRRRKLSSIESDV [Tat-NR2B9c]
neuroscore (PBBI-induced neurological deficits) (PBBI rats [2]): significant, reduction in PBBI-induced neurological deficits; also recorded: significantly improved neuroscore | footfaults per beam segment contralateral to site of injury (PBBI rats [3]; Study 1, 0.5 mg/kg, vs PBBI rats): made significantly fewer foot faults than the PBBI rats | footfaults per beam segment contralateral to site of injury (PBBI rats [3]; Study 1, 5.0 mg/kg, vs PBBI rats): made significantly fewer foot faults than the PBBI rats | rats unable to cross the beam (assigned maximal footfault scores) (PBBI rats [3]; Study 1, high-dose, of 10 animals per group): two | rats unable to cross the beam (PBBI rats [3]; Study 1, high-dose): one | rats unable to cross the beam (assigned maximal footfault scores) (PBBI rats [3]; Study 1, low-dose, of 10 animals per group): two | footfaults per beam segment contralateral to site of injury (PBBI rats [3]; Study 2, 0.275 mg/kg, narrowest beam segment, vs PBBI animals): made fewer footfaults than the PBBI animals | footfaults per beam segment contralateral to site of injury (PBBI rats [3]; Study 2, 0.50 mg/kg, narrowest beam segment, vs PBBI animals): made fewer footfaults than the PBBI animals | rats unable to cross the beam (assigned maximal footfault scores) (PBBI rats [3]; Study 2, high-dose, of 10-11 animals per group): one | rats unable to cross the beam (assigned maximal footfault scores) (PBBI rats [3]; Study 2, low-dose, of 10-11 animals per group): three | rats unable to cross the beam (PBBI rats [3]; Study 2, low-dose): one | rats unable to cross the beam (assigned maximal footfault scores) (PBBI rats [3]; Study 2, medium-dose, of 10-11 animals per group): one | mean rotarod latencies across speeds relative to vehicle-treated PBBI rats (PBBI rats [4]; 20 mg/kg single slow bolus 30 minutes after PBBI): > 2 fold | mean rotarod latency across speeds (PBBI rats [4]; 20 mg/kg, p<0.05 vs PBBI/veh): 29 ± 3 s | rotarod performance (PBBI rats [4]; Study 1 (FIG. 3A), 0.5 mg/kg, summary statement): significantly improved | rotarod task recovery (PBBI rats [4]; higher speeds (20-25 rpm)): but not at higher speeds | rotarod task recovery (PBBI rats [4]; two lower speeds (10-15 rpm)): promoted significant recovery (to SHAM levels) | MWM performance (PBBI rats [5]): possibly an improvement in the MWM performance | hypothermic effect (measured in the rectum) (PBBI rats [6]): about 2 degrees C. | stability of lyophilized composition (lyophilized at 1-50 mg/ml in normal saline, with or without excipients): stable at −20 °C or at room temperature | period of stability (insignificant degradation or aggregation of the peptide) (peptide in normal saline at 10-30 mg/ml, stored frozen): two | total lesion volume (PBBI rats [7]; 20 mg/kg, TTC staining, p<0.05 vs PBBI/veh): 37±4 mm^3 | reduction in total lesion volume (PBBI rats [7]; 20 mg/kg, TTC staining, vs PBBI/veh): 33% | overall (total) lesion volume (PBBI rats [7]; 0.5 mg/kg): did not significantly reduce overall lesion volume; also recorded: did not reach a significant neuroprotective effect on total lesion volume | overall (total) lesion volume (PBBI rats [7]; 5.0 mg/kg): did not significantly reduce overall lesion volume; also recorded: did not reach a significant neuroprotective effect on total lesion volume
